This is an account of results in patent publication US20200270225A1, “Chiral Diacylhydrazine Ligands for Modulating the Expression of Exogenous Genes via an Ecdysone Receptor Complex” (Intrexon Corporation, priority 2007, published 2020).

Like-named read-outs stand apart in the source and are kept apart here.

Series [1] concerns the target wild-type Choristoneura fumiferana EcR (D, E and F domains) (Choristoneura fumiferana, UniProt O77240). It is filed as cell-based. The conditions noted are these: WT-CtEcR, 3T3 Cells; for RMFI (relative maximum fold induction): relative to GS-E ligand. The method in brief:
(§1)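 NIH3T3 cells were transiently co-transfected with GAL4-DBD fused to CfEcR DEF domains (wild-type or V390I/Y410E/E274V), VP16-AD fused to chimeric human/Locusta RXR, and a GAL4-response luciferase reporter. Ligand was given at 8 doses, 0.01–33 µM, 0.33% DMSO, luciferase read at 48 h. EC50 came from fold induction over DMSO via three-parameter logistic fit; Relative Max FI was taken versus GS™-E ligand.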

Series [2] concerns the target T1, [V390I/Y410E/E274V]-CfEcR (Choristoneura fumiferana, UniProt O77240).
T1 construct: assay construct b835
It is filed as cell-based. The conditions noted are these: 3T3 Cells; for RMFI (relative maximum fold induction): relative to GS-E ligand. The method in brief: as §1

The compound `CCC[C@@H](N(NC(=O)c1cc(F)cc(F)c1)C(=O)c1cc(C)cc(C)c1)C(C)(C)C` [Example 18, (R)-3,5-Dimethyl-benzoic acid N-(1-tert-butyl-butyl)-N′-(3,5-difluoro-benzoyl)-hydrazide] came in with a melting point of 192 to 194 °C. Moreover, in series [1] (R), the EC50 worked out at 141 nM and the “RMFI (relative maximum fold induction)” value came to 0.52. In series [2] (R), the EC50 is around 10 nM and the “RMFI (relative maximum fold induction)” value is 0.79.
`C=CC[C@H](N(NC(=O)OCc1ccccc1)C(=O)c1cc(C)cc(C)c1)C(C)(C)C` [Example 31.4, (S)—N′-(1-tert-butyl-but-3-enyl)-N′-(3,5-dimethyl-benzoyl)-hydrazine carboxylic acid benzyl ester]: the melting point was 150 to 151.5 °C. This compound displayed an EC50 in series [1] (S) above 10000 nM. The compound also showed an EC50 in series [2] (S) above 10000 nM.
The compound `CCC[C@@H](N(NC(=O)c1ccc(OC)c(OC)c1)C(=O)c1cc(C)cc(C)c1)C(C)(C)C` [Example 17, (R)-3,5-Dimethyl-benzoic acid N-(1-tert-butyl-butyl)-N′-(3,4-dimethoxy-benzoyl)-hydrazide] registered a melting point of 121 to 123 °C. Moreover, in series [1] (R), the EC50 is around 4000 nM and the “RMFI (relative maximum fold induction)” value is listed as 0.27. In addition, in series [2] (R), the EC50 is around 300 nM and the “RMFI (relative maximum fold induction)” value was 0.53.
On the same counts, the results for `CCC[C@@H](N(NC(=O)c1ccc2ccccc2c1)C(=O)c1cc(C)cc(C)c1)C(C)(C)C` [Example 24, (R)-3,5-Dimethyl-benzoic acid N-(1-tert-butyl-butyl)-N′-(naphthalene-2-carbonyl)-hydrazide] are 91 °C, around 200 nM, 0.46, around 20 nM and 0.80.
In the same order, the values of `CCC[C@@H](N(NC(=O)c1ccc(C)cc1)C(=O)c1cc(C)cc(C)c1)C(C)(C)C` [Example 11, (R)-3,5-Dimethyl-benzoic acid N-(1-tert-butyl-butyl)-N′-(4-methyl-benzoyl)-hydrazide] are 60 to 62 °C, around 20 nM, 0.74, around 1 nM and 0.90.
In the same order, the values of `CCC[C@@H](N(NC(=O)c1cccc2ccccc12)C(=O)c1cc(C)cc(C)c1)C(C)(C)C` [Example 23, (R)-3,5-Dimethyl-benzoic acid N-(1-tert-butyl-butyl)-N′-(naphthalene-1-carbonyl)-hydrazide] are 173 to 174 °C, 111 nM, 0.69, around 10 nM and 0.73.
In the case of `CCC[C@@H](N(NC(=O)c1ccccc1Cl)C(=O)c1cc(C)cc(C)c1)C(C)(C)C` [Example 6, (R)-3,5-Dimethyl-benzoic acid N-(1-tert-butyl-butyl)-N′-(2-chloro-benzoyl)-hydrazide], the melting point fell in the range of 138 to 140 °C. Moreover, in series [1] (R), the EC50 is around 20 nM and the “RMFI (relative maximum fold induction)” value worked out at 0.88. In series [2] (R), the midpoint of the response, the EC50, lay at 0.63 nM and the “RMFI (relative maximum fold induction)” value is given as 1.01.
In the same order, the values of `CCC[C@@H](N(NC(=O)c1ccccc1F)C(=O)c1cc(C)cc(C)c1)C(C)(C)C` [Example 5, (R)-3,5-Dimethyl-bcnzoic acid N-(1-tert-butyl-butyl)-N′-(2-fluoro-benzoyl)-hydrazide] are 114 to 116 °C, around 40 nM, 0.68, around 0.8 nM and 1.16.
In the same order, the values of `CCC[C@@H](N(NC(=O)c1ccccc1Br)C(=O)c1cc(C)cc(C)c1)C(C)(C)C` [Example 7, (R)-3,5-Dimethyl-benzoic acid N′-(2-bromo-benzoyl)-N-(1-tert-butyl-butyl)-hydrazide] are 145 to 147 °C, 78.7 nM, 0.58, 1.4 nM and 0.90.
In the same order, the values of `CCC[C@@H](N(NC(=O)c1ccccc1C)C(=O)c1cc(C)cc(C)c1)C(C)(C)C` [Example 3, (R)-3,5-Dimethyl-benzoic acid N-(1-tert-butyl-butyl)-N′-(2-methyl-benzoyl)-hydrazide] are 137 to 138 °C, 90 nM, 0.75, 1.1 nM and 0.69.
As for `CCC[C@@H](N(NC(=O)c1cccc(OC)c1)C(=O)c1cc(C)cc(C)c1)C(C)(C)C` [Example 9, (R)-3,5-Dimethyl-benzoic acid N-(1-tert-butyl-butyl)-N′-(3-methoxy-benzoyl)-hydrazide], the melting point lay within 110 to 111 °C. Also, in series [1] (R), the midpoint of the response, the EC50, lay at 101 nM and the “RMFI (relative maximum fold induction)” value is 0.81. In series [2] (R), the EC50 was 1.4 nM and the “RMFI (relative maximum fold induction)” value was determined as 0.70.
On the same counts, the results for `CCC[C@@H](N(NC(=O)c1ccc(Cl)cc1)C(=O)c1cc(C)cc(C)c1)C(C)(C)C` [Example 14, (R)-3,5-Dimethyl-benzoic acid N-(1-tert-butyl-butyl)-N′-(4-chloro-benzoyl)-hydrazide] are 87 to 89 °C, 140 nM, 0.74, 51 nM and 0.74.
In the case of `CCC[C@@H](N(NC(=O)c1cccc(OC)c1C)C(=O)c1cc(C)cc(C)c1)C(C)(C)C` [Example 29, (R)-3,5-Dimethyl-benzoic acid N-(1-tert-butyl-butyl)-N′-(3-methoxy-2-methyl-benzoyl)-hydrazide], the melting point was 141 to 143 °C. Moreover, in series [1] (R), the EC50 is around 1 nM and the “RMFI (relative maximum fold induction)” value was found to be 1.08. Besides, in series [2] (R), it took 0.078 nM to reach a half-maximal effect (EC50) and the “RMFI (relative maximum fold induction)” value is recorded as 1.05.
`CCC[C@@H](N(NC(=O)c1cccc(C)c1)C(=O)c1cc(C)cc(C)c1)C(C)(C)C` [Example 8, (R)-3,5-Dimethyl-benzoic acid N-(1-tert-butyl-butyl)-N′-(3-methyl-benzoyl)-hydrazide] displayed a melting point of 158 to 159 °C. Besides, in series [1] (R), the EC50 is around 30 nM and the “RMFI (relative maximum fold induction)” value was 0.86. Besides, in series [2] (R), the EC50 is 1.2 nM and the “RMFI (relative maximum fold induction)” value was determined as 0.92.
Compound `CCC[C@@H](N(NC(=O)c1c(Cl)cccc1Cl)C(=O)c1cc(C)cc(C)c1)C(C)(C)C` [Example 16] yielded a melting point of 185 to 187 °C. Moreover, in series [1] (R), the EC50 is around 300 nM and the “RMFI (relative maximum fold induction)” value was 0.53. In series [2] (R), the midpoint of the response, the EC50, lay at 51.2 nM and the “RMFI (relative maximum fold induction)” value came out at 0.83.

As usually defined, the melting point is the temperature of the solid-liquid transition. Usually EC50 stands for the concentration at which the effect is half-maximal. Higher therefore signals a need for much substance.
